Article PMC11173382, “In Vitro Investigations into the Potential Drug Interactions of Pseudoginsenoside DQ Mediated by Cytochrome P450 and Human Drug Transporters” (Molecules, 2024)

Key:
Type in all cases: in vitro ADME
[1] = molecular target: T1, CYP2C19 (Homo sapiens, UniProt P33261); test: CYP450 inhibition assay in human liver microsomes, CYP2C19; details: HLM 0.1 mg/mL; probe S-mephenytoin 20 µM; 20 min
T1 construct: tissue Corning 452117; host or cells: human liver microsomes
Procedure: (§1) To evaluate the reliability and reproducibility of the CYP450 inhibition assay, we measured the inhibitory effects of selected positive control inhibitors of each CYP450 enzyme in human liver microsomes (HLM, Table 1, Figure 2). The potency of inhibition was estimated by observing the alteration in concentration of metabolites of CYP450 substrates (Table 1).
(§2) Reagents preparation. […] The stock solution of PDQ (10 mM) was prepared with methanol and further diluted to the range of 3 µM to 3 mM with methanol to ensure that the solvent of different PDQ samples contained the same amount (1%) of methanol.
(§3) The stock solutions of the positive control inhibitors and the probe substrates of CYP450 enzymes were prepared in methanol.
(§4) CYP450 inhibition assay. […] The assay was conducted in polypropylene 96-well plates (2.2 mL/well, Apricot Designs Inc., Covina, CA, USA).
(§5) The total volume of the reaction is 200 μL. […] The substrates and analytes were analyzed by LC-MS/MS (API4000, Applied Biosystems, Singapore; HPLC, Shimadzu, Japan). […]
(§6) Data analysis. […] The IC50 was determined by fitting the dependence of the relative remaining activity (y = Vi/V0) to the following three-parameter equation (Equation (1)). […]

[2] = molecular target: T2, hOAT3 (Homo sapiens, UniProt Q8TCC7); test: Substrates uptake assay, S2-OAT3 cells (3H-ES); details: 3H-ES 0.05 µM, 2 min
T2 sequence (Q8TCC7 1-542): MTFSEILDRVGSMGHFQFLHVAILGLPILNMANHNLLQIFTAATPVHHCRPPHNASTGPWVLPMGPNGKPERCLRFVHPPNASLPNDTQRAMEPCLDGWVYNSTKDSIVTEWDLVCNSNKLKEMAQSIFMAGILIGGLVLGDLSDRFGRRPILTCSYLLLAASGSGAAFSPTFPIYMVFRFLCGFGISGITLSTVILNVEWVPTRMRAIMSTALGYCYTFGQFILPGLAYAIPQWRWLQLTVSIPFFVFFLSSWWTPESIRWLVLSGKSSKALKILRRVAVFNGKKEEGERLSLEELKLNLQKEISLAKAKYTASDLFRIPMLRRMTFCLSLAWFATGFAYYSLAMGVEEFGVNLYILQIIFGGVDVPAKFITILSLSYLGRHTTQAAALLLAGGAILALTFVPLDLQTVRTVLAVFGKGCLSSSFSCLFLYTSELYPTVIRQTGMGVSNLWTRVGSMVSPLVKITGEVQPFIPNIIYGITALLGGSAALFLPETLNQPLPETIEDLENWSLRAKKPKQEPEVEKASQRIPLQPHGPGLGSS

[3] = molecular target: T3, CYP2B6 (Homo sapiens, UniProt P20813); test: CYP450 inhibition assay in human liver microsomes, CYP2B6; details: HLM 0.1 mg/mL; probe bupropion 80 µM; 10 min
T3 construct: tissue Corning 452117; host or cells: human liver microsomes
T3 sequence (P20813 1-491): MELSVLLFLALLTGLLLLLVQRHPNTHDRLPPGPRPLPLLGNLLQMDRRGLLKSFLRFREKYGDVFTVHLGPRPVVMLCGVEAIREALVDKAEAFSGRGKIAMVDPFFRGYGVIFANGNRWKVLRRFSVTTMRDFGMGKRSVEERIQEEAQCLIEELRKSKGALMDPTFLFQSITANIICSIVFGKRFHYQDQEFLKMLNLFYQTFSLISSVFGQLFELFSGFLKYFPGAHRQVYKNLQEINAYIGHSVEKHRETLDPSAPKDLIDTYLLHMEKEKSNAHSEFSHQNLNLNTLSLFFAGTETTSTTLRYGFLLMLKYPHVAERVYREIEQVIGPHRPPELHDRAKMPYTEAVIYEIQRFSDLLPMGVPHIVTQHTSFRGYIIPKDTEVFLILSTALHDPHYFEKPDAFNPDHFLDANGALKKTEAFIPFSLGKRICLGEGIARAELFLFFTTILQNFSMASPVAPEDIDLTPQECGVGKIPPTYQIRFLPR
Procedure: as §1, §2, §3, §4, §5, §6

[4] = molecular target: T4, hOCT2 (Homo sapiens, UniProt O15244); test: Substrates uptake assay, S2-OCT2 cells (14C-TEA); details: 14C-TEA 5 µM, 5 min
T4 construct: host or cells: S2-OCT2
T4 sequence (O15244 1-555): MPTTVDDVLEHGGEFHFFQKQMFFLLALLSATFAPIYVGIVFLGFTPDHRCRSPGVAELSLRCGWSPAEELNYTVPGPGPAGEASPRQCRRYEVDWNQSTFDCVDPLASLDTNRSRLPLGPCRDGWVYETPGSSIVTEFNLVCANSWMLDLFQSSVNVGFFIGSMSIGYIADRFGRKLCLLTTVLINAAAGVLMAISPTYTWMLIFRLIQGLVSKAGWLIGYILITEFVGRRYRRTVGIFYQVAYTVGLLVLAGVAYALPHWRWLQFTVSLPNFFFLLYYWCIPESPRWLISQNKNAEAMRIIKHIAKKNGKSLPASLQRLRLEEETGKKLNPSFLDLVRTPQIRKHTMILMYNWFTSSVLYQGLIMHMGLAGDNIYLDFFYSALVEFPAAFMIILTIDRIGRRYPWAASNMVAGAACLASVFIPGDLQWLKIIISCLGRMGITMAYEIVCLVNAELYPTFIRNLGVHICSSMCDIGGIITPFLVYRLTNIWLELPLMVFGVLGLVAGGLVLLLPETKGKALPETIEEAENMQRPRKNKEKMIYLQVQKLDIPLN

T1 sequence (P33261 whole entry): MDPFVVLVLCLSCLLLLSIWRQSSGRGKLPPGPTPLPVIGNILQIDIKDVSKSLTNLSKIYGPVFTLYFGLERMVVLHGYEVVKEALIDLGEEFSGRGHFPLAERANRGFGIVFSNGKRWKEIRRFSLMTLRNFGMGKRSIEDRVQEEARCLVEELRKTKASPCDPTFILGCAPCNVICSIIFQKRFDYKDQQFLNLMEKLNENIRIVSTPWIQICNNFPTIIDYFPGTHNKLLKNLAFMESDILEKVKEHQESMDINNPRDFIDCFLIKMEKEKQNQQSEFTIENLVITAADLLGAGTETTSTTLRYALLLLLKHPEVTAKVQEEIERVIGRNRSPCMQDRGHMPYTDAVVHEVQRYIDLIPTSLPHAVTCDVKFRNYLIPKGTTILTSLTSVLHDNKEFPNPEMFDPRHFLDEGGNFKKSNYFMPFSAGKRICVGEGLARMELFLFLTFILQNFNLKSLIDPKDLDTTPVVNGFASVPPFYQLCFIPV

## CC(C)(O)[C@@H]1CC[C@@](C)([C@H]2CC[C@]3(C)[C@@H]2[C@H](O)C[C@@H]2[C@@]4(C)CC[C@H](O)C(C)(C)[C@@H]4CC[C@]23C)O1 [PDQ, (20S,24S)-dammar-20,24-epoxy-3β, 12β, 25-triol]
[1]
  IC50: 0.698 µM
[2]
  IC50: > 30 µM
[3]
  IC50: 45.3 µM
[4]
  IC50: > 30 µM
